Reference: patent US20020049223A1, “Quinoline and naphthyridine carboxylic acid antibacterials” (priority 1999, published 2002)
Where a name gives a salt, the structure may show the parent alone.

Experiments:
[1] = system: Enterococcus faecalis PIU 1967; test: Assay B: in vitro antibacterial activity, broth microdilution MIC (NCCLS); type: cell-based; details: Table 2, Assay B, cation-adjusted Mueller Hinton broth, 35° C., 16 to 20 hr; code B = Enterococcus faecalis PIU 1967; unit assumed
Outline: (§1)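 NCCLS broth microdilution: cation-adjusted MH broth, ~5×10^5 CFU/mL, 35° C, 16–20 hr, visual endpoint of complete growth inhibition. Fastidious strains incubated 20–24 hr, S. pneumoniae with 3% lysed horse blood, H. influenzae with yeast extract, hematin and NAD.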

Escherichia coli JUHL = test: as above; type: cell-based; details: Table 2, Assay B, cation-adjusted Mueller Hinton broth, 35° C., 16 to 20 hr; code D = Escherichia coli JUHL; unit assumed
Outline: as §1

[2] = system: Haemophilus influenzae DILL AMP R; test: as above; type: cell-based; details: Table 2, Assay B, Mueller Hinton broth with yeast extract, hematin and NAD, 20 to 24 hr; code E = Haemophilus influenzae DILL AMP R; unit assumed
Outline: as §1

[3] = system: Staphylococcus aureus ATCC 6538P; test: as above; type: cell-based; details: Table 2, Assay B, cation-adjusted Mueller Hinton broth, 35° C., 16 to 20 hr; code A = Staphylococcus aureus ATCC 6538P; unit assumed
Outline: as §1

[4] = system: Streptococcus pneumoniae ATCC 6303; test: as above; type: cell-based; details: Table 2, Assay B, Mueller Hinton broth with 3% lysed horse blood, 20 to 24 hr; code F = Streptococcus pneumoniae ATCC 6303; unit assumed
Outline: as §1

Row | Compound | melting point | further results
1 | Br.CC1(C)CNCc2cc(-c3ccc4c(=O)c(C(=O)O)cn(C5CC5)c4n3)sc21 | > 300 °C (dec.) | 
2 | Br.COc1c(-c2cc3c(s2)C(C)(C)CNC3)ccc2c(=O)c(C(=O)O)cn(C3CC3)c12 | 212 to 217 °C (dec.) | 
3 | Br.COc1c(-c2cc3c(s2)CCNC3C)ccc2c(=O)c(C(=O)O)cn(C3CC3)c12 (stereo not drawn) | 202 to 205 °C (dec.) | 
4 | CC1CNCc2sc(-c3ccc4c(=O)c(C(=O)O)cn(C5CC5)c4c3)cc21.Cl (stereo not drawn) | 295 to 298 °C | 
5 | Br.CC1(C)CNCc2cc(-c3nc4c(cc3F)c(=O)c(C(=O)O)cn4C3CC3)sc21 | 258 to 262 °C (dec.) | 
6 | COc1c(-c2cc3c(s2)CNCC3C)ccc2c(=O)c(C(=O)O)cn(C3CC3)c12.Cl (stereo not drawn) | 254 to 259 °C | 
7 | COc1c(-c2cc3c(s2)CCC/C3=N\OCc2ccccn2)ccc2c(=O)c(C(=O)O)cn(C3CC3)c12 (as salt: hydrochloride) [Example 183, 1-cyclopropyl-8-methoxy-4-oxo-7-((4E)-4-((2-pyridinylmethoxy)imino)-4,5,6,7-tetrahydro-1-benzothien-2-yl)-1,4-dihydro-3-quinolinecarboxylic acid] | 178 to 179 °C | 
8 | CC1NCCc2cc(-c3ccc4c(=O)c(C(=O)O)cn(C5CC5)c4n3)sc21.Cl (stereo not drawn) | 310 to 312 °C | 
9 | COc1c(-c2cc3c(s2)CCCC3O)ccc2c(=O)c(C(=O)O)cn(C3CC3)c12 (stereo not drawn) [Example 38, 1-cyclopropyl-7-(4-hydroxy-4,5,6,7-tetrahydro-1-benzothien-2-yl)-8-methoxy-4-oxo-1,4-dihydro-3-quinolinecarboxylic acid] | 237 to 239 °C | 
10 | COc1c(-c2cc3c(s2)CCC/C3=N\OCc2cccnc2)ccc2c(=O)c(C(=O)O)cn(C3CC3)c12 (as salt: hydrochloride) [Example 182, 1-cyclopropyl-8-methoxy-4-oxo-7-((4E)-4-((3-pyridinylmethoxy)imino)-4,5,6,7-tetrahydro-1-benzothien-2-yl)-1,4-dihydro-3-quinolinecarboxylic acid] | 181 to 183 °C | 
11 | COc1c(-c2cc3c(s2)C(O)CCC3)ccc2c(=O)c(C(=O)O)cn(C3CC3)c12 (stereo not drawn) [Example 41, 1-cyclopropyl-7-(7-hydroxy-4,5,6,7-tetrahydro-1-benzothien-2-yl)-8-methoxy-4-oxo-1,4-dihydro-3-quinolinecarboxylic acid] | 238 to 240 °C | 
12 | Cl.O=C(O)c1cn(C2CC2)c2nc(-c3cc4c(s3)CNCC4)ccc2c1=O | 298 to 300 °C | 
13 | COc1c(-c2cc3c(s2)CCC(CO)=C3)ccc2c(=O)c(C(=O)O)cn(C3CC3)c12 [Example 44, 1-cyclopropyl-7-(5-(hydroxymethyl)-6,7-dihydro-1-benzothien-2-yl)-8-methoxy-4-oxo-1,4-dihydro-3-quinolinecarboxylic acid] | 205 to 206 °C | 
14 | Br.CC1(C)CNCc2cc(-c3ccc4c(=O)c(C(=O)O)cn(C5CC5)c4c3)sc21 | > 300 °C (dec.) | 
15 | COc1c(-c2cc3c(s2)S(=O)(=O)CCC3O)ccc2c(=O)c(C(=O)O)cn(C3CC3)c12 (stereo not drawn) [Example 135, 1-cyclopropyl-7-(4-hydroxy-7,7-dioxido-5,6-dihydro-4H-thieno[2,3-b]thiopyran-2-yl)-8-methoxy-4-oxo-1,4-dihydro-3-quinolinecarboxylic acid] |  | Antibacterial Activity (MIC's), B [1]: 1 µg/mL; Antibacterial Activity (MIC's), D (Escherichia coli JUHL): 16 µg/mL; Antibacterial Activity (MIC's), E [2]: 1 µg/mL; Antibacterial Activity (MIC's), A [3]: 1 µg/mL; Antibacterial Activity (MIC's), F [4]: 4 µg/mL
16 | COc1c(-c2cc3c(s2)C(N)CCC3(C)C)ccc2c(=O)c(C(=O)O)cn(C3CC3)c12.Cl (stereo not drawn) [Example 222, 7-(7-amino-4,4-dimethyl-4,5,6,7-tetrahydro-1-benzothien-2-yl)-1-cyclopropyl-8-methoxy-4-oxo-1,4-dihydro-3-quinolinecarboxylic acid hydrochloride] |  | Antibacterial Activity (MIC's), B [1]: 0.5 µg/mL; Antibacterial Activity (MIC's), D (Escherichia coli JUHL): 1 µg/mL; Antibacterial Activity (MIC's), E [2]: 0.5 µg/mL; Antibacterial Activity (MIC's), A [3]: 0.125 µg/mL; Antibacterial Activity (MIC's), F [4]: 0.25 µg/mL
